Laboratory results as given in patent US20240336591A1, “ORGANIC PYRIDINE-PYRAZOLE COMPOUNDS AND THEIR USES” (priority 2021, published 2024).
Like-named read-outs stand apart in the source and are kept apart here.

Columns and labels:
Human PDE10A2 [1] = molecular target: T1, Human PDE10A2 (Homo sapiens (Human), UniProt Q9Y233); test: Biochemical human PDE10A activity assay - PDE10A2 Phosphate Sensor Assay; settings: cGMP 3 μM substrate, PDE10A2 0.25 nM
Description: Biochemical Human PDE10A Activity Assay—PDE10A2 Phosphate Sensor Assay
Semi Log compound dilutions starting at a final concentration of 50 μM were dispensed into a black 384 well plate alongside, DMSO and an Inhibited control using the Echo Acoustic dispenser. […] Data was analysed using a 4-parameter fit.

Human PDE10A2 [2] = molecular target: T1, Human PDE10A2; test: Cell based human PDE10A activity assay - cAMP HTRF assay in HEK 293 rhPDE10A2 cell line
Description: Semi log compound dilutions starting at a final concentration of 10 μM were dispensed into a white 384 well plate, alongside DMSO and an Inhibited control using the Tecan D300e digital dispenser. HEK 293 cells overexpressing recombinant human PDE10A2 were seeded on top of the compounds at 2500 cells/well in a volume 5 μL/well. The plate was incubated at room temperature for 60 minutes. To induce endogenous cAMP, 5 μL/well of Forskolin at a final assay concentration of 10 μM was added to the plate. The plate was incubated at room temperature for a further 45 minutes. cAMP HTRF detection reagents were added, and the plate was incubated for 60 minutes at room temperature. […] Data was analysed using a 4-parameter fit.

[3] = Forskolin 10 μM, read-out: cAMP HTRF Assay in HEK 293 rhPDE10A2 cell line (pIC50) (converted)

T1 sequence (Q9Y233 267-1055): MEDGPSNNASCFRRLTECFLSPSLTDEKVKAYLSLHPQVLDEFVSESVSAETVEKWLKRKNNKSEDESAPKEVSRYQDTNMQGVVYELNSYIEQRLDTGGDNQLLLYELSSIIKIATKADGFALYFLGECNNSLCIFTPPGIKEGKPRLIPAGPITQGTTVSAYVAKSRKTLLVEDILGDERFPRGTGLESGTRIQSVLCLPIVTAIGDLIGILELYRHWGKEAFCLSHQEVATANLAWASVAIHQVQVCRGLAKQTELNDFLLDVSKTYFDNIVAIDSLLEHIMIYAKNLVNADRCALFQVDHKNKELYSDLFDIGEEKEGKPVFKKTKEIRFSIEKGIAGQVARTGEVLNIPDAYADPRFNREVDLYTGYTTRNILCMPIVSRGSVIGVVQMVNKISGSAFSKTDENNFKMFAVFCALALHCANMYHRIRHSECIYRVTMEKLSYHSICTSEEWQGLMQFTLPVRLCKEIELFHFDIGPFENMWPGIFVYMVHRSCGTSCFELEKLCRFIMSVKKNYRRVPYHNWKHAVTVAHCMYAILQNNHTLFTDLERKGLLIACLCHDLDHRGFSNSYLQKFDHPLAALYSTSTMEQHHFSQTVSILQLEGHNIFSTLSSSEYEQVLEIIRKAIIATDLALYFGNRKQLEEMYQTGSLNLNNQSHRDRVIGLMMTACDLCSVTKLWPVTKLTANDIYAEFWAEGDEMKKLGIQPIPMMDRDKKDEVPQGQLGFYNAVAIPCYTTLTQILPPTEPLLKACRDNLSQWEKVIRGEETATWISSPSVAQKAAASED

Compound | PDE10A2 Phosphate Sensor Enzyme Assay (pIC50) (Human PDE10A2 [1]) | IC50 (Human PDE10A2 [2]; [3]) [nM] | IC50 (Human PDE10A2 [2]) [nM]
Cn1cc(-c2ccncc2)c(-c2ccc(OCc3cc(NS(C)(=O)=O)c4ccccc4n3)cc2)n1 [Example 34, N-[2-[[4-[1-Methyl-4-(4-pyridyl)pyrazol-3-yl]phenoxy]methyl]-4-quinolyl]methanesulfonamide] | 9.54 | 1.2 | 
CS(C)(=O)=Nc1cc(COc2ccc(-c3n[nH]cc3-c3ccncc3)cc2)nc2ccccc12 [Example 32, Dimethyl-oxo-[[2-[[4-[4-(4-pyridyl)-1H-pyrazol-3-yl]phenoxy]methyl]-4-quinolyl]imino]-λ6-sulfane] | 10.3 | 46.8 | 
Cn1cc(-c2ccncc2)c(-c2ccc(OCc3cc(C(=O)N=S(C)(C)=O)c4cc(F)ccc4n3)cc2)n1 [Example 25, N-[Dimethyl(oxo)-λ6-sulfanylidene]-6-fluoro-2-[[4-[1-methyl-4-(4-pyridyl)pyrazol-3-yl]phenoxy]methyl]quinoline-4-carboxamide] | 9.41 | 3.63 | 
Cn1cc(-c2ccncc2)c(-c2ccc(OCc3nc(N4CCS(=O)(=O)CC4)c4ccccc4n3)cc2)n1 [Example 37, 4-[2-[[4-[1-Methyl-4-(4-pyridyl)pyrazol-3-yl]phenoxy]methyl]quinazolin-4-yl]-1,4-thiazinane 1,1-dioxide] | 9.65 | 1.48 | 
Cc1ccc2nc(COc3ccc(-c4nn(C)cc4-c4ccncc4)cc3)c(C(=O)N=S(C)(C)=O)cc2c1 [Example 24, N-[Dimethyl(oxo)-λ6-sulfanylidene]-6-methyl-2-[[4-[1-methyl-4-(4-pyridyl)pyrazol-3-yl]phenoxy]methyl]quinoline-3-carboxamide] |  | 331 | 
CN(C(=O)c1cc(COc2ccc(-c3nn(C)cc3-c3ccncc3)cc2)nc2ccccc12)S(C)(=O)=O [Example 16, N-Methyl-2-[[4-[1-methyl-4-(4-pyridyl)pyrazol-3-yl]phenoxy]methyl]-N-methylsulfonyl-quinoline-4-carboxamide] | 9.87 | 0.603 | 
Cn1cc(-c2ccncc2)c(-c2ccc(OCc3nc(N4CC(N)C4)c4ccccc4n3)cc2)n1 [Example 39, 1-[2-[[4-[1-Methyl-4-(4-pyridyl)pyrazol-3-yl]phenoxy]methyl]quinazolin-4-yl]azetidin-3-amine] | 9.46 | 24.5 | 
Cn1cc(-c2ccncc2)c(-c2ccc(OCc3nc(N4CCNC(=O)C4)c4ccccc4n3)cc2)n1 [Example 38, 4-[2-[[4-[1-Methyl-4-(4-pyridyl)pyrazol-3-yl]phenoxy]methyl]quinazolin-4-yl]piperazin-2-one] | 10.1 | 0.269 | 
Cn1cc(-c2ccncc2)c(-c2ccc(OCc3nc4cc(F)ccc4cc3C(=O)N=S(C)(C)=O)cc2)n1 [Example 21, N-[Dimethyl(oxo)-λ6-sulfanylidene]-7-fluoro-2-[[4-[1-methyl-4-(4-pyridyl)pyrazol-3-yl]phenoxy]methyl]quinoline-3-carboxamide] | 8.32 | 550 | 
Cn1cc(-c2ccncc2)c(-c2ccc(OCc3nc4ccccc4cc3C(=O)N=S(C)(=O)C3CC3)cc2)n1 (centres unmarked) [Example 14, N-(Cyclopropyl-methyl-oxo-λ6-sulfanylidene)-2-[[4-[1-methyl-4-(4-pyridyl)pyrazol-3-yl]phenoxy]methyl]quinoline-3-carboxamide] | 10.0 | 0.676 | 
CS(C)(=O)=NC(=O)c1cc(COc2ccc(-c3nn(C4CC4)cc3-c3ccncc3)cc2)nc2ccccc12 [Example 28, 2-[[4-[1-Cyclopropyl-4-(4-pyridyl)pyrazol-3-yl]phenoxy]methyl]-N-[dimethyl(oxo)-λ6-sulfanylidene]quinoline-4-carboxamide] | 9.42 | 2.75 | 
CS(C)(=O)=NC(=O)c1cc(COc2ccc(-c3n[nH]cc3-c3ccncc3)cc2)nc2ccccc12 [Example 12, N-[Dimethyl(oxo)-λ6-sulfanylidene]-2-[[4-[4-(4-pyridyl)-1H-pyrazol-3-yl]phenoxy]methyl]quinoline-4-carboxamide] | 9.84 | 5.01 | 
Cn1cc(-c2ccncc2)c(-c2ccc(OCc3nc4ccccc4cc3C(=O)N=S3(=O)CCCC3)cc2)n1 [Example 13, 2-[[4-[1-Methyl-4-(4-pyridyl)pyrazol-3-yl]phenoxy]methyl]-N-(1-oxothiolan-1-ylidene)quinoline-3-carboxamide] | 9.86 | 0.977 | 
Cn1cc(-c2ccncc2)c(-c2ccc(OCc3nc(N4CCNCC4)c4ccccc4n3)cc2)n1 [Example 40, 2-[[4-[1-Methyl-4-(4-pyridyl)pyrazol-3-yl]phenoxy]methyl]-4-piperazin-1-yl-quinazoline] | 8.98 | 4.57 | 
CS(=O)(=O)n1cc(-c2ccncc2)c(-c2ccc(OCc3ccc4ccccc4n3)cc2)n1 [Example 6, 2-[[4-[1-Methylsulfonyl-4-(4-pyridyl)pyrazol-3-yl]phenoxy]methyl]quinoline] | 8.36 | 64.6 | 
CS(C)(=O)=NC(=O)c1cc2ccccc2nc1COc1ccc(-c2n[nH]cc2-c2ccncc2)cc1 [Example 31, N-[Dimethyl(oxo)-λ6-sulfanylidene]-2-[[4-[4-(4-pyridyl)-1H-pyrazol-3-yl]phenoxy]methyl]quinoline-3-carboxamide] | 10 |  | 13.8
CS(C)(=O)=NC(=O)c1cc(COc2ccc(-c3nn(CC(F)(F)F)cc3-c3ccncc3)cc2)nc2ccccc12 [Example 8, N-[Dimethyl(oxo)-λ6-sulfanylidene]-2-[[4-[4-(4-pyridyl)-1-(2,2,2-trifluoroethyl)pyrazol-3-yl]phenoxy]methyl]quinoline-4-carboxamide] | 10.2 | 0.38 | 
Cn1cc(-c2ccncc2)c(-c2ccc(OCc3nc4ccc(F)cc4cc3C(=O)N=S(C)(C)=O)cc2)n1 [Example 22, N-[Dimethyl(oxo)-λ6-sulfanylidene]-6-fluoro-2-[[4-[1-methyl-4-(4-pyridyl)pyrazol-3-yl]phenoxy]methyl]quinoline-3-carboxamide] | 9.49 | 17.4 | 
CS(=N)(=O)c1cc(COc2ccc(-c3n[nH]cc3-c3ccncc3)cc2)nc2ccccc12 (centres unmarked) [Example 33, Imino-methyl-oxo-[2-[[4-[4-(4-pyridyl)-1H-pyrazol-3-yl]phenoxy]methyl]-4-quinolyl]-λ6-sulfane] | 9.32 | 8.91 | 
CCn1cc(-c2ccncc2)c(-c2ccc(OCc3cc(C(=O)N=S(C)(C)=O)c4ccccc4n3)cc2)n1 [Example 27, N-[Dimethyl(oxo)-λ6-sulfanylidene]-2-[[4-[1-ethyl-4-(4-pyridyl)pyrazol-3-yl]phenoxy]methyl]quinoline-4-carboxamide] | 10.2 | 0.537 | 
Cc1cccc2nc(COc3ccc(-c4nn(C)cc4-c4ccncc4)cc3)c(C(=O)N=S(C)(C)=O)cc12 [Example 7, N-[Dimethyl(oxo)-λ6-sulfanylidene]-5-methyl-2-[[4-[1-methyl-4-(4-pyridyl)pyrazol-3-yl]phenoxy]methyl]quinoline-3-carboxamide] | 9.65 | 1.48 | 
Cn1cc(-c2ccncc2)c(-c2ccc(OCc3nc4cccc(F)c4cc3C(=O)N=S(C)(C)=O)cc2)n1 [Example 23, N-[Dimethyl(oxo)-λ6-sulfanylidene]-5-fluoro-2-[[4-[1-methyl-4-(4-pyridyl)pyrazol-3-yl]phenoxy]methyl]quinoline-3-carboxamide] | 9.59 | 3.98 | 
O=C(O)c1cc(COc2ccc(-c3n[nH]cc3-c3ccncc3)cc2)nc2ccccc12 [Example 30, 2-[[4-[4-(4-Pyridyl)-1H-pyrazol-3-yl]phenoxy]methyl]quinoline-4-carboxylic acid] | 10.2 | 0.138 | 
Cn1ncc(-c2ccncc2)c1-c1ccc(OCc2cc(C(=O)O)c3ccccc3n2)cc1 [Example 1, 2-[[4-[2-Methyl-4-(4-pyridyl)pyrazol-3-yl]phenoxy]methyl]quinoline-4-carboxylic acid] | 9.43 | 1.95 | 
CNC(=O)Nc1cc(COc2ccc(-c3nn(C)cc3-c3ccncc3)cc2)nc2ccccc12 [Example 35, 1-Methyl-3-[2-[[4-[1-methyl-4-(4-pyridyl)pyrazol-3-yl]phenoxy]methyl]-4-quinolyl]urea] | 9.67 | 3.47 | 
O=C(O)c1cc2ccccc2nc1COc1ccc(-c2n[nH]cc2-c2ccncc2)cc1 [Example 29, 2-[[4-[4-(4-Pyridyl)-1H-pyrazol-3-yl]phenoxy]methyl]quinoline-3-carboxylic acid] | 10 | 0.347 | 
Cn1cc(-c2ccncc2)c(-c2ccc(OCc3nc4ccccc4nc3N3CC(N)C3)cc2)n1 [Example 41, 1-[3-[[4-[1-Methyl-4-(4-pyridyl)pyrazol-3-yl]phenoxy]methyl]quinoxalin-2-yl]azetidin-3-amine] | 9.45 |  | 7.59
